Test system: skin surface
Assay: Body shampoo streak of 0.1% EtNic against placebo on the other side (erythema meter, Cyclops pyrometer)
Type: in vivo, human
Design: ERYTHEMA METER AN / ERYTHEMA METER FA / ERYTHEMA METER UA / ERYTHEMA METER BR / ERYTHEMA METER SH / ERYTHEMA METER WA / ERYTHEMA METER HI / ERYTHEMA METER TH / ERYTHEMA METER CA: scale not given here; TEMPERATURE CHANGE FA / TEMPERATURE CHANGE UA / TEMPERATURE CHANGE BR / TEMPERATURE CHANGE SH / TEMPERATURE CHANGE WA / TEMPERATURE CHANGE HI / TEMPERATURE CHANGE TH / TEMPERATURE CHANGE CA / TEMPERATURE CHANGE AN: unit not given here
Conditions: for ERYTHEMA METER AN / TEMPERATURE CHANGE AN / ERYTHEMA METER CA / TEMPERATURE CHANGE CA / ERYTHEMA METER HI / TEMPERATURE CHANGE HI / ERYTHEMA METER FA / TEMPERATURE CHANGE FA / ERYTHEMA METER BR / TEMPERATURE CHANGE BR / ERYTHEMA METER SH / TEMPERATURE CHANGE SH / ERYTHEMA METER TH / TEMPERATURE CHANGE TH / ERYTHEMA METER UA / TEMPERATURE CHANGE UA / ERYTHEMA METER WA / TEMPERATURE CHANGE WA: 0.1% EtNic; for ERYTHEMA METER AN / TEMPERATURE CHANGE AN: ankle; for ERYTHEMA METER CA / TEMPERATURE CHANGE CA: calf; for ERYTHEMA METER HI / TEMPERATURE CHANGE HI: hip; for ERYTHEMA METER FA / TEMPERATURE CHANGE FA: mid forearm; for ERYTHEMA METER BR / TEMPERATURE CHANGE BR: side breast; for ERYTHEMA METER SH / TEMPERATURE CHANGE SH: side shoulder; for ERYTHEMA METER TH / TEMPERATURE CHANGE TH: thigh; for ERYTHEMA METER UA / TEMPERATURE CHANGE UA: upper arm; for ERYTHEMA METER WA / TEMPERATURE CHANGE WA: waist
Experimental: A subject showered in the conventional way but without shampoo or soap. The redness and temperature of the skin surface was measured at symmetrical points from the mid forearm down the body to the ankle, after the excess water had been removed by light towelling. The person re-showered and between 2 and 3 grammes of shampoo according to Example 5 was streaked down one side of the body in a broad line. The body shampoo was rubbed into a lather periodically during the two minutes. A placebo shampoo of corresponding composition was applied first to one side of the body and then the time started when the shampoo with the ethyl nicotinate was applied to the other side. […] The redness was measured with the erythema meter whilst the temperature was measured with a Cyclops pyrometer at ten sites on each side. The time was taken as the mean of the two times for each pair of sites. The time course was followed for about 50 minutes. After about 210 minutes the experiment was repeated, but treating the opposite sides. The result shown below are the differences in redness and temperature of the corresponding sites.

[1] = left hand side, mean time 0.00 (baseline), difference of corresponding sites
[2] = left hand side, mean time 17.56, difference of corresponding sites
[3] = left hand side, mean time 31.56, difference of corresponding sites
[4] = left hand side, mean time 44.89, difference of corresponding sites
[5] = left hand side, mean time 59.61, difference of corresponding sites
[6] = left hand side, mean time 77.21, difference of corresponding sites
[7] = left hand side, time 10.00, mean time 10.37, difference of corresponding sites
[8] = left hand side, time 25.00, mean time 24.98, difference of corresponding sites
[9] = left hand side, time 38.00, mean time 38.30, difference of corresponding sites
[10] = left hand side, time 53.00, mean time 52.87, difference of corresponding sites
[11] = right hand side, mean time 0.00 (baseline), difference of corresponding sites
[12] = right hand side, time 10.00, mean time 9.79, difference of corresponding sites
[13] = right hand side, time 26.00, mean time 26.13, difference of corresponding sites
[14] = right hand side, time 42.00, mean time 42.25, difference of corresponding sites
[15] = right hand side, time 210.00, mean time 209.78, difference of corresponding sites
[16] = all the sites, shampoo according to Example 5, two minutes

CCOC(=O)c1cccnc1 [EtNic, ethyl nicotinate]
ERYTHEMA METER AN [1]: -0.53 | TEMPERATURE CHANGE AN [1]: -0.10 | TEMPERATURE CHANGE AN [2]: 0.30 | TEMPERATURE CHANGE AN [3]: -0.20 | TEMPERATURE CHANGE AN [4]: 0.70 | TEMPERATURE CHANGE AN [5]: 0.80 | TEMPERATURE CHANGE AN [6]: 0.30 | ERYTHEMA METER AN [7]: 0.29 | ERYTHEMA METER AN [8]: 0.56 | ERYTHEMA METER AN [9]: -0.43 | ERYTHEMA METER AN [10]: -0.25 | ERYTHEMA METER CA [1]: -0.26 | TEMPERATURE CHANGE CA [1]: -0.30 | TEMPERATURE CHANGE CA [2]: 2.90 | TEMPERATURE CHANGE CA [3]: 2.30 | TEMPERATURE CHANGE CA [4]: 1.10 | TEMPERATURE CHANGE CA [5]: 0.90 | TEMPERATURE CHANGE CA [6]: 0.50 | ERYTHEMA METER CA [7]: 0.26 | ERYTHEMA METER CA [8]: 0.41 | ERYTHEMA METER CA [9]: -0.17 | ERYTHEMA METER CA [10]: -0.12 | ERYTHEMA METER HI [1]: 0.03 | TEMPERATURE CHANGE HI [1]: 0.10 | TEMPERATURE CHANGE HI [2]: 1.10 | TEMPERATURE CHANGE HI [3]: 3.70 | TEMPERATURE CHANGE HI [4]: 3.30 | TEMPERATURE CHANGE HI [5]: 2.90 | TEMPERATURE CHANGE HI [6]: 2.20 | ERYTHEMA METER HI [7]: 0.74 | ERYTHEMA METER HI [8]: 0.31 | ERYTHEMA METER HI [9]: 0.12 | ERYTHEMA METER HI [10]: 0.13 | ERYTHEMA METER FA [1]: -0.65 | TEMPERATURE CHANGE FA [1]: -0.20 | TEMPERATURE CHANGE FA [2]: -0.50 | TEMPERATURE CHANGE FA [3]: 0.20 | TEMPERATURE CHANGE FA [4]: -0.30 | TEMPERATURE CHANGE FA [5]: 0.20 | TEMPERATURE CHANGE FA [6]: 0.00 | ERYTHEMA METER FA [7]: 0.39 | ERYTHEMA METER FA [8]: 0.00 | ERYTHEMA METER FA [9]: -0.06 | ERYTHEMA METER FA [10]: 0.05 | ERYTHEMA METER BR [1]: -0.12 | TEMPERATURE CHANGE BR [1]: -1.10 | TEMPERATURE CHANGE BR [2]: 4.80 | TEMPERATURE CHANGE BR [3]: 4.80 | TEMPERATURE CHANGE BR [4]: 4.30 | TEMPERATURE CHANGE BR [5]: 1.70 | TEMPERATURE CHANGE BR [6]: 1.00 | ERYTHEMA METER BR [7]: 1.09 | ERYTHEMA METER BR [8]: 0.71 | ERYTHEMA METER BR [9]: 0.91 | ERYTHEMA METER BR [10]: 0.41 | ERYTHEMA METER SH [1]: 0.00 | TEMPERATURE CHANGE SH [1]: 0.40 | TEMPERATURE CHANGE SH [2]: 3.40 | TEMPERATURE CHANGE SH [3]: 4.50 | TEMPERATURE CHANGE SH [4]: 3.30 | TEMPERATURE CHANGE SH [5]: 1.50 | TEMPERATURE CHANGE SH [6]: 0.30 | ERYTHEMA METER SH [7]: 1.08 | ERYTHEMA METER SH [8]: 1.06 | ERYTHEMA METER SH [9]: 0.77 | ERYTHEMA METER SH [10]: 0.38 | ERYTHEMA METER TH [1]: -0.23 | TEMPERATURE CHANGE TH [1]: 0.10 | TEMPERATURE CHANGE TH [2]: 3.70 | TEMPERATURE CHANGE TH [3]: 3.20 | TEMPERATURE CHANGE TH [4]: 2.50 | TEMPERATURE CHANGE TH [5]: 1.90 | TEMPERATURE CHANGE TH [6]: 1.30 | ERYTHEMA METER TH [7]: 0.47 | ERYTHEMA METER TH [8]: 0.43 | ERYTHEMA METER TH [9]: 0.28 | ERYTHEMA METER TH [10]: 0.17 | ERYTHEMA METER UA [1]: -0.28 | TEMPERATURE CHANGE UA [1]: 0.00 | TEMPERATURE CHANGE UA [2]: 3.10 | TEMPERATURE CHANGE UA [3]: 3.60 | TEMPERATURE CHANGE UA [4]: 2.70 | TEMPERATURE CHANGE UA [5]: 1.80 | TEMPERATURE CHANGE UA [6]: 1.40 | ERYTHEMA METER UA [7]: 1.35 | ERYTHEMA METER UA [8]: 0.67 | ERYTHEMA METER UA [9]: 0.82 | ERYTHEMA METER UA [10]: 0.23 | ERYTHEMA METER WA [1]: 0.03 | TEMPERATURE CHANGE WA [1]: -0.30 | TEMPERATURE CHANGE WA [2]: 4.80 | TEMPERATURE CHANGE WA [3]: 6.80 | TEMPERATURE CHANGE WA [4]: 6.40 | TEMPERATURE CHANGE WA [5]: 5.00 | TEMPERATURE CHANGE WA [6]: 3.60 | ERYTHEMA METER WA [7]: 0.66 | ERYTHEMA METER WA [8]: 0.44 | ERYTHEMA METER WA [9]: 0.79 | ERYTHEMA METER WA [10]: 0.05 | ERYTHEMA METER AN [11]: 0.08 | ERYTHEMA METER AN [12]: 0.62 | ERYTHEMA METER AN [13]: 0.57 | ERYTHEMA METER AN [14]: 0.57 | ERYTHEMA METER AN [15]: 0.53 | ERYTHEMA METER CA [11]: 0.06 | ERYTHEMA METER CA [12]: 0.87 | ERYTHEMA METER CA [13]: 0.75 | ERYTHEMA METER CA [14]: 0.58 | ERYTHEMA METER CA [15]: 0.26 | ERYTHEMA METER HI [11]: 0.44 | ERYTHEMA METER HI [12]: 0.92 | ERYTHEMA METER HI [13]: 0.55 | ERYTHEMA METER HI [14]: 0.50 | ERYTHEMA METER HI [15]: -0.03 | ERYTHEMA METER FA [11]: 0.20 | ERYTHEMA METER FA [12]: -0.28 | ERYTHEMA METER FA [13]: 0.51 | ERYTHEMA METER FA [14]: 0.41 | ERYTHEMA METER FA [15]: 0.65 | ERYTHEMA METER BR [11]: 0.06 | ERYTHEMA METER BR [12]: 1.20 | ERYTHEMA METER BR [13]: 1.48 | ERYTHEMA METER BR [14]: 0.72 | ERYTHEMA METER BR [15]: 0.12 | ERYTHEMA METER SH [11]: 0.12 | ERYTHEMA METER SH [12]: 1.81 | ERYTHEMA METER SH [13]: 1.61 | ERYTHEMA METER SH [14]: 0.81 | ERYTHEMA METER SH [15]: 0.00 | ERYTHEMA METER TH [11]: 0.07 | ERYTHEMA METER TH [12]: 0.87 | ERYTHEMA METER TH [13]: 0.43 | ERYTHEMA METER TH [14]: 0.04 | ERYTHEMA METER TH [15]: 0.23 | ERYTHEMA METER UA [11]: 0.38 | ERYTHEMA METER UA [12]: 0.89 | ERYTHEMA METER UA [13]: 1.40 | ERYTHEMA METER UA [14]: 0.74 | ERYTHEMA METER UA [15]: 0.28 | ERYTHEMA METER WA [11]: 0.06 | ERYTHEMA METER WA [12]: 1.16 | ERYTHEMA METER WA [13]: 1.09 | ERYTHEMA METER WA [14]: 0.70 | ERYTHEMA METER WA [15]: -0.03 | redness [16]: increase | temperature [16]: increase | maximum temperature difference (at the waist): seven
